Experimental data as given in publication PMC4794757 (Bioorganic & medicinal chemistry letters, 2016).

Tests used:
[1] = biological target: hmGlu1 (Homo sapiens, UniProt Q13255); experiment: Calcium mobilization mGlu1 assay; format: cell-based; settings: for mGlu1 pEC50 (±SEM) / hmGlu1 EC50: calcium mobilization; for mGlu1 pEC50 (±SEM): n=3; for hmGlu1 EC50: average of n=3 in triplicate
[2] = biological target: hmGlu4 (Homo sapiens, UniProt Q14833); experiment: mGlu4 counter-screen; format: cell-based; settings: selectivity mGlu1 versus mGlu4
Sequence of hmGlu4 (Q14833 33-912): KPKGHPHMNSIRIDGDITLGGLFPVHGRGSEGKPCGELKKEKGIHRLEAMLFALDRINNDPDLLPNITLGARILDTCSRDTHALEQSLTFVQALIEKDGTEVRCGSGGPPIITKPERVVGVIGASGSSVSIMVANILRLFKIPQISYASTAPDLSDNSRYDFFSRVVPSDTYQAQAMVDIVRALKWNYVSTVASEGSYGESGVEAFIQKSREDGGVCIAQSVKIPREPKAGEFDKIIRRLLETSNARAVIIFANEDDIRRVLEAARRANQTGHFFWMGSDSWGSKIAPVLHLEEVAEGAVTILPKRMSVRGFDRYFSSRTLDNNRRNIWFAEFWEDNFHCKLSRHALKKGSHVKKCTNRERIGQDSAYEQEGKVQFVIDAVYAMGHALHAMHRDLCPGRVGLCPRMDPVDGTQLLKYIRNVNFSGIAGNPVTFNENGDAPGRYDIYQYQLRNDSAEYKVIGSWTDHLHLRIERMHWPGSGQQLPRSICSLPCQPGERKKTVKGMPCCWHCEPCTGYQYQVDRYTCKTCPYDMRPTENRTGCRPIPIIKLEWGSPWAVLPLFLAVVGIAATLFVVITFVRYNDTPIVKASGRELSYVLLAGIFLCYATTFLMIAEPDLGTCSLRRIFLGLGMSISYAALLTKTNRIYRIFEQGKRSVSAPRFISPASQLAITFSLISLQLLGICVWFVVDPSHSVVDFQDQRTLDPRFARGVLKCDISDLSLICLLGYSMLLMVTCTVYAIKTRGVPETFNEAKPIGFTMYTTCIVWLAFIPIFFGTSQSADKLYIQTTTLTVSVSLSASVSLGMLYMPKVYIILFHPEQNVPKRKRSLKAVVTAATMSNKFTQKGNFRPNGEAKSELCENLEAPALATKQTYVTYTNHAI

[3] = Rat iv PK; format: in vivo; settings: rat iv clearance versus rat microsomal prediction

Sequence of hmGlu1 (Q13255 19-1194): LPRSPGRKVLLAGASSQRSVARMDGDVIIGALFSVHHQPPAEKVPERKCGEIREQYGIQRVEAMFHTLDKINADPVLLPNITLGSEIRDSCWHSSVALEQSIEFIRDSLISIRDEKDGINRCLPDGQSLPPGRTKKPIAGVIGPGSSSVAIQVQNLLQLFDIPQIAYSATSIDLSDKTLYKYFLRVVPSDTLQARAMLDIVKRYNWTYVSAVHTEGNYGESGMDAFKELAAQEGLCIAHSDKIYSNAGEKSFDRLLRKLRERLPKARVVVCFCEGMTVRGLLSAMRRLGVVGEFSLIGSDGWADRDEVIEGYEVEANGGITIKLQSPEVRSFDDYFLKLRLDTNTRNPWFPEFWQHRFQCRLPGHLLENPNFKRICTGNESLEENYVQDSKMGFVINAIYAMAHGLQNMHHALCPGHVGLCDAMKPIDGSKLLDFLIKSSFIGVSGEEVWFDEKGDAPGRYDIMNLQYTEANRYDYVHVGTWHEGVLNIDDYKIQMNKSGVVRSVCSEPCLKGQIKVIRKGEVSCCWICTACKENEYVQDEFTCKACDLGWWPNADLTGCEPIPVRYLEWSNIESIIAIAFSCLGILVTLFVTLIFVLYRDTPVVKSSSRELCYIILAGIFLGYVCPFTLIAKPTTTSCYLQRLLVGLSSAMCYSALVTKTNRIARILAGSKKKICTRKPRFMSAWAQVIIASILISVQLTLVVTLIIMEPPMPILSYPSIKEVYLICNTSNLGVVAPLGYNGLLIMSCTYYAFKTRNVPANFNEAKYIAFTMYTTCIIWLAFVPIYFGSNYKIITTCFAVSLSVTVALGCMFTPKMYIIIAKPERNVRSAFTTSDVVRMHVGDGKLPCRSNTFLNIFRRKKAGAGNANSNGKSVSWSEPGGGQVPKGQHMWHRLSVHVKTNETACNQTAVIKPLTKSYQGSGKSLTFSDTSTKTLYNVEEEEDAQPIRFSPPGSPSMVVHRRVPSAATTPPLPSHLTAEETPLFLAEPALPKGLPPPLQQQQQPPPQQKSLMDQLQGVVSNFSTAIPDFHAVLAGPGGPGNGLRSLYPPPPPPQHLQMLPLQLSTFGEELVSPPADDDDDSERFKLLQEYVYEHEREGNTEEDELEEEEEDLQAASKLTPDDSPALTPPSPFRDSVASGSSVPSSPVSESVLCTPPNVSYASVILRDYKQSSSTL

Structure (SMILES) | mGlu1 pEC50 (±SEM) [1] | other results
Cc1scnc1C(=O)Nc1ccc(N2C(=O)c3ccc(Cl)cc3C2=O)c(Cl)c1 [11j] | 7.30±0.15 | –
Cn1ccnc1C(=O)Nc1ccc(N2C(=O)c3cccnc3C2=O)c(Cl)c1 [11u] | >5 | –
Cc1ccc2c(c1)C(=O)N(c1ccc(NC(=O)c3nccn3C)cc1Cl)C2=O [11o] | 6.60±0.20 | –
Cc1ccc2c(c1)C(=O)N(c1ccc(NC(=O)c3ncoc3C)cc1Cl)C2=O [11a] | 7.38±0.11 | –
CN1CCC[C@H]1C(=O)Nc1ccc(N2C(=O)c3ccccc3C2=O)c(Cl)c1 [10m] | >5 | hmGlu1 EC50 [1]: inactive
Cc1ccsc1C(=O)Nc1ccc(N2C(=O)c3ccccc3C2=O)c(Cl)c1 [10d] | 5.72±0.27 | EC50 [1]: 1.5 to 1.8 µM
Cc1ccoc1C(=O)Nc1ccc(N2C(=O)c3cccc(F)c3C2=O)cc1F [13e] | 7.65±0.07 | –
Cn1ccnc1C(=O)Nc1ccc(N2C(=O)c3cccc(F)c3C2=O)c(Cl)c1 [11t] | >5 | –
Cn1ccnc1C(=O)Nc1ccc(N2C(=O)c3ccc(Cl)cc3C2=O)c(Cl)c1 [11q] | 6.58±0.13 | –
Cc1cn[nH]c1C(=O)Nc1ccc(N2C(=O)c3cccc(F)c3C2=O)c(Cl)c1 [11aa] | – | Fold versus mGlu4 [2]: >16 fold
Cc1ccoc1C(=O)Nc1ccc(N2C(=O)c3cccc(C)c3C2=O)cc1F [13b] | – | in vivo clearance lower than the in vitro predicted value [3]: 4 times
Cc1ccc2c(c1)C(=O)N(c1ccc(NC(=O)c3[nH]ncc3C)cc1Cl)C2=O [11v] | 6.25±0.16 | –
Cc1ncoc1C(=O)Nc1ccc(N2C(=O)c3ccccc3C2=O)c(Cl)c1 [10f] | >5 | –
Cc1scnc1C(=O)Nc1ccc(N2C(=O)c3cccc(Cl)c3C2=O)c(Cl)c1 [11k] | 5.86±0.28 | Fold versus mGlu4 [2]: >7.3 fold
Cn1ccnc1C(=O)Nc1ccc(N2C(=O)c3cccc(Cl)c3C2=O)c(Cl)c1 [11r] | >5 | –
Cc1cn[nH]c1C(=O)Nc1ccc(N2C(=O)c3cccc(C)c3C2=O)c(Cl)c1 [11w] | 5.36±0.22 | Fold versus mGlu4 [2]: >2 fold
Cc1cccc2c1C(=O)N(c1ccc(NC(=O)c3ncsc3C)cc1Cl)C2=O [11i] | 6.64±0.14 | –
Cc1cccc2c1C(=O)N(c1ccc(NC(=O)c3nccn3C)cc1Cl)C2=O [11p] | >5 | –
Cc1ccoc1C(=O)Nc1ccc(N2C(=O)c3ccc(Cl)cc3C2=O)cc1F [13c] | 8.27±0.02 | –
CN1CCC[C@@H]1C(=O)Nc1ccc(N2C(=O)c3ccccc3C2=O)c(Cl)c1 [10l] | >5 | hmGlu1 EC50 [1]: inactive
Cc1ocnc1C(=O)Nc1ccc(N2C(=O)c3ccc(Cl)cc3C2=O)c(Cl)c1 [11c] | 7.26±0.13 | –
Cc1scnc1C(=O)Nc1ccc(N2C(=O)c3cccnc3C2=O)c(Cl)c1 [11n] | – | Fold versus mGlu4 [2]: >52 fold
Cc1ccoc1C(=O)Nc1ccc(N2C(=O)c3ccc(F)cc3C2=O)cc1F [13d] | 7.71±0.06 | –
Cc1[nH]ccc1C(=O)Nc1ccc(N2C(=O)c3ccccc3C2=O)c(Cl)c1 [10b] | >5 | –
Cc1ccc2c(c1)C(=O)N(c1ccc(NC(=O)c3occc3C)c(F)c1)C2=O [13a] | – | in vivo clearance lower than the in vitro predicted value [3]: 8 times
Cc1scnc1C(=O)Nc1ccc(N2C(=O)c3ccccc3C2=O)c(Cl)c1 [10i] | – | potency increase relative to the unsubstituted thiazole ([1]; effect of a single methyl group): ~200 fold
Cc1cn[nH]c1C(=O)Nc1ccc(N2C(=O)c3ccccc3C2=O)c(Cl)c1 [10k] | 5.91±0.21 | –
Cc1ocnc1C(=O)Nc1ccc(N2C(=O)c3ccccc3C2=O)c(Cl)c1 [10g] | 5.83±0.02 | –
Cc1ncsc1C(=O)Nc1ccc(N2C(=O)c3ccccc3C2=O)c(Cl)c1 [10h] | >5 | –
Cc1cn[nH]c1C(=O)Nc1ccc(N2C(=O)c3cccc(Cl)c3C2=O)c(Cl)c1 [11y] | >5 | –
